Source: patent US5827837A, “Polyanion anti-inflammatory agents” (priority 1996, dated 1998)

How the values were obtained:
peripheral blood PMN = assay: Number of peripheral blood PMN; details: in vivo
Text: (§1) In the first model, mice were given intraperitoneal (i.p.) injections of 3% thioglycollate broth (FIG. 4, left panel) which results in an accumulation of PMN, the early phase of which is thought to depend in large part on L-(Lewinsohn, D. M., et al., J. Immunol., 138:4313, 1987; Watson, S. R., et al., Nature, 349:164, 1991), and P-selectin (Mulligan, M. S., et al., J. Clin. Invest., 90:1600, 1992). […] In a rat model of lung inflammation involving intratracheal instillation of endotoxin (Ulich, T. R., et al., Am. J. Pathol, 138:1485, 1991), InsP6 (i.v. injections at 2 and 4 hours, 40 μmol/kg total) reduced the number of PMN recovered in broncho-alveolar lavage fluid at 6 hours (59±8% inhibition, 2 experiments). The number of peripheral blood PMN was not modified by InsP6 treatment.

[1] = test system: Human umbilical vein endothelial cells (HUVEC); assay: PMN adhesion to TNF-activated endothelial monolayers (HUVEC); type: cell-based; details: InsP6 0.5 mM
Protocol: Human umbilical vein endothelial cells (HUVEC, Clonetics Corp., San Diego, Calif.) were grown to confluence with 2.2 cm diameter circles made on glass slides with a grease pencil as previously described (Spertini, O., et al., J. Immunol., 147:2565, 1991), and activated for 6-8 hours at […] with 200 U/ml of human recombinant TNFα (Biogen Res. Corp., Cambridge, Mass.). Human PMN (2×10^6) were allowed to adhere to these endothelial monolayers for 30 min at 4° C. under static (stationary platform; upper panel) and non-static (rotating platform, 64 r.p.m.; lower panel) conditions. To determine adhesion blocking activity, PMN were incubated in 5% FBS in RPMI 1640 alone or containing inositol (0.5 mM), InsP6 (0.5 mM), or anti-L-selectin monoclonal antibody LAM 1.3 (10 μg/ml), for 30 min or ice prior to their addition to activated endothelial monolayers. In some experimental wells, endothelial monolayers were incubated with anti E-selectin monoclonal antibody, H18/7, for 30 min prior to addition of PMN. After washing to remove unbound PMN, cultures were fixed in PBS containing 2.5% glutaraldehyde and adherent PMN were counted microscopically. The data represent the mean ±s.e.m. of three separate experiments. Unblocked PMN adhesion to activated endothelial monolayers under static and non-static conditions ranged from 1800 to 2400 cells/mm^2. […]

E-selectin (E-COS) = assay: PMN adhesion to E-selectin transfected COS cells (E-COS); type: cell-based, human; details: 0.5 mM
Protocol: (§2) COS-1 cells were transfected as described (Seed, B., et al., Proc. Natl. Acad. Sci., U.S.A., 84:3365, 1987; Aruffo, A., Current Protocols In Molecular Biology, eds. supra, 1992) with pCDM7/pCDM8 expression vectors containing the full-length E-, P- and L-selectin cDNA. Transfected COS-1 cells were seeded on gelatin coated coverslips.

neutrophils = details: cited from earlier work
[2] = mice and rats, high-dose (^18 600 μmol/kg), rate 60 μmol/kg/min or higher; cited from earlier work
hemoglobin = details: in vitro; cited from earlier work
[3] = biological target: T1, E-selectin-lg fusion protein (Homo sapiens, UniProt P16581); assay: LS 180 colon cancer cell adhesion to immobilized E-selectin-Ig; type: cell-based
T1 construct: Each selectin-lg contains the lectin domain, epidermal growth factor domain, and one (L-selectin-lg), two (P-selectin-lg) or six (E-selectin-lg) complement regulatory repeats; made in house
T1 sequence (P16581 with tags, fused parts or gaps limits assumed): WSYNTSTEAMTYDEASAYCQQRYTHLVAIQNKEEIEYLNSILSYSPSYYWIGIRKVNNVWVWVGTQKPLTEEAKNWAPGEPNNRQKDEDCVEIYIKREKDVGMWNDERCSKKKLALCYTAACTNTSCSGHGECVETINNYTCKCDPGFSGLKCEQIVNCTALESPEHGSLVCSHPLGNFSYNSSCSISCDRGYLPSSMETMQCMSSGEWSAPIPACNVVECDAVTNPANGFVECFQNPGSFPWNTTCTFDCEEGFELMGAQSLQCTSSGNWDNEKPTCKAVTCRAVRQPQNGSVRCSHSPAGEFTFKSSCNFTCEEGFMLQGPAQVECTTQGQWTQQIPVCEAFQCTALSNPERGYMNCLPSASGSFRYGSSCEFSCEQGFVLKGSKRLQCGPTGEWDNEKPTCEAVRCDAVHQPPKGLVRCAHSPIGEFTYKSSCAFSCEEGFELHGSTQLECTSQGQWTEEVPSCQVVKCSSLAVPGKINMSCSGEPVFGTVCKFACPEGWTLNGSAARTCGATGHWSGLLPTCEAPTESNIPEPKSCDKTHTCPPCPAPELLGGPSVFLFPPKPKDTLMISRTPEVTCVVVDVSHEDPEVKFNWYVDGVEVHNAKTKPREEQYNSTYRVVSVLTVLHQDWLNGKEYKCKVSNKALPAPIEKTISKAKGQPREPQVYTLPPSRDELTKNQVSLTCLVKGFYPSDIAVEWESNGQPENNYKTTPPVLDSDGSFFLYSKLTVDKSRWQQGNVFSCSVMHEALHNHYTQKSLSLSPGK
Protocol: Cell adhesion assays on immobilized selectin-lg were performed essentially as described (Nelson, R. M., et al., J. Clin. Invest., 91:1157, 1993; Nelson, R. M., et al., Symposia on Quant. Biol., 57:271, 1992). Briefly, Nunclon Terasaki Microwell plates were coated overnight with 5 μl/well of a 5 μg/ml solution of protein A (Chemicon, Temecula, Calif.) in 50 mM carbonate buffer, pH 9.5. Protein-A-coated plates were washed with Dulbecco's phosphate buffered saline (PBS), incubated for 1 hour with L-, P-, or E-selectin-lg fusion proteins in PBS (5-20 μg/ml), washed again, and blocked with PBS containing 1% human serum albumin (HSA). […] After washing to remove unbound cells, adherent cells were fixed with glutaraldehyde (2.5% in PBS) and counted. Symbols and error bars represent mean number of adherent cells/mm^2 ±s.e.m., counted in quadruplicate wells in a single experiment representative of three. No LS 180 cell adhesion was detected on plates coated with protein A alone, or on plates coated with protein A-captured CD8-lg fusion protein.
LS 180 cells (ATCC, Rockville, Md.) were added to cell culture wells containing protein A-captured selectin-lg fusion proteins and incubated for 30 min at 4° C. to allow adhesion. The plates were washed to remove unbound cells and adherent cells were counted microscopically. […]

L-selectin (L-COS) = assay: LS 180 cell adhesion to COS cells transfected with full length L-selectin (L-COS); type: cell-based; details: 0.5 mM, 2 experiments
Protocol: (§3) The effect of inositols on selectin-dependent cell adhesion was assessed using several in vitro assay systems. In the first, a colon cancer cell line, LS 180, was chosen because it binds to all three selecting.
as §2

[4] = test system: PMN recovered in broncho-alveolar lavage fluid; assay: Lung inflammation by intratracheal instillation of endotoxin, PMN in broncho-alveolar lavage fluid; type: in vivo; details: rat, i.v. at 2 and 4 hours, 40 μmol/kg total, at 6 hours, 2 experiments
Text: as §1

[5] = Toxic effects after injection, applicant's studies; type: in vivo
P-selectin (P-COS) = assay: LS 180 cell adhesion to COS cells transfected with full length P-selectin (P-COS); type: cell-based; details: 0.5 mM, 2 experiments
Protocol: as §3, §2

With `O=P(O)(O)O[C@H]1[C@H](OP(=O)(O)O)[C@@H](OP(=O)(O)O)[C@H](OP(=O)(O)O)[C@@H](OP(=O)(O)O)[C@H]1OP(=O)(O)O` [InsP6, myo-inositol hexakisphosphate] the “number of peripheral blood PMN” value (peripheral blood PMN) was “not modified”, the “PMN adhesion to TNF-activated endothelial cells, non-static” value ([1]; non-static conditions (rotation-induced shear stress, 64 r.p.m.)) was “blocked the adhesion of PMN” and the “PMN adhesion to TNF-activated endothelial cells, static” value ([1]; static conditions) was “little or no effect”. The “PMN adhesion to E-COS” value (E-selectin (E-COS)) was “not to E-COS”, the “effect on neutrophil responses to activating stimuli” value (neutrophils) was “enhance their responses to activating stimuli” and the “acute toxic effects, i.v. infusion” value [2] was “acute toxic effects”. For the same compound, the “allosteric regulation of mammalian hemoglobin” value (hemoglobin) was “effective allosteric regulator of mammalian hemoglobin in vitro”, the “LS 180 adhesion to E-selectin-Ig” value [3] was “but not with E-selectin-lg” and the “inhibition of LS 180 cell adhesion to L-COS” value (L-selectin (L-COS)) was 81±13%. The “inhibition of PMN recovered in broncho-alveolar lavage fluid” value [4] was 59±8%, the “toxic effects at decreased infusion rate and lower doses” value ([5]; 40 μmol/kg, decreased rate of infusion) was “These effects were avoided” and the “duration of transient toxic effects” value ([5]; rapid i.v. (5-10 sec), >50 μmol/kg) was 1 to 3 min. The “toxic effects upon rapid i.v. injection” value ([5]; rapid i.v. (5-10 sec), concentrated solutions >50 μmol/kg) was “some transient (duration 1-3 min) toxic effects (unsteady gate, spasms)”, the “harmful effect on repeated protocol” value ([5]; repeated multiple times in the same animal, 40 μmol/kg) was “without apparent harmful effect” and the “toxic effects, subcutaneous” value ([5]; s.c., doses up to 200 μmol/kg) was “no toxic effects were observed”. For the same compound, the “inhibition of LS 180 cell adhesion to P-COS” value (P-selectin (P-COS)) was 95±5%.
